Values joined by “and” are separate entries in the source; they are usually repeats but may differ in a detail not shown here. Identical values can stand only once. Inconclusive results and toxic doses are left out.

The test deals with P388 leukemia ip, CD2F1 mice, survival T/C. Kind of test: NCI In Vivo Anticancer Drug Screen. Data for tumor model P388 Leukemia (intraperitoneal) in CD2F1 (CDF1) mice. The note with it: endpoint: median survival time, higher = longer survival. In short, it runs like this: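 Mice carrying the transplanted tumor received test compound or vehicle. Survival was recorded in each group, and the value is the treated-group measurement divided by that of the vehicle-treated control group.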

The mark [1] stands for this setting: dose: 240.0 mg/kg/injection, schedule: Q01DX005 (ip), vehicle: Klucel (hydroxypropylcellulose) (HPC).
Setting [2] is: dose: 60.0 mg/kg/injection, schedule: Q01DX005 (ip), vehicle: saline with Tween-80.
Where [3] appears, read: dose: 120.0 mg/kg/injection, schedule: Q01DX005 (ip), vehicle: saline with Tween-80.
Setting [4] is: dose: 240.0 mg/kg/injection, schedule: Q01DX005 (ip), vehicle: saline with Tween-80.
Setting [5] is: dose: 100.0 mg/kg/injection, schedule: Q04DX003 (ip), vehicle: saline with Tween-80.
[6] abbreviates: dose: 200.0 mg/kg/injection, schedule: Q04DX003 (ip), vehicle: saline with Tween-80.
The mark [7] stands for this setting: dose: 400.0 mg/kg/injection, schedule: Q04DX003 (ip), vehicle: saline with Tween-80.
[8] abbreviates: dose: 60.0 mg/kg/injection, schedule: Q01DX005 (ip), vehicle: Klucel (hydroxypropylcellulose) (HPC).
Setting [9] is: dose: 120.0 mg/kg/injection, schedule: Q01DX005 (ip), vehicle: Klucel (hydroxypropylcellulose) (HPC).
[10] abbreviates: dose: 100.0 mg/kg/injection, schedule: Q01DX009 (ip), vehicle: saline.
[11] abbreviates: dose: 200.0 mg/kg/injection, schedule: Q01DX009 (ip), vehicle: saline.
Where [12] appears, read: dose: 50.0 mg/kg/injection, schedule: Q01DX005 (ip), vehicle: saline.
The mark [13] stands for this setting: dose: 100.0 mg/kg/injection, schedule: Q01DX005 (ip), vehicle: saline.
The mark [14] stands for this setting: dose: 50.0 mg/kg/injection, schedule: Q01DX009 (ip), vehicle: saline.

In the case of `CC(C)N1C(Nc2ccccn2)C(C)(C)C(C)(C)C1Nc1ccccn1` (configuration not stated), the T/C is, setting by setting: (dose: 30.0 mg/kg/injection, schedule: Q01DX005 (ip), vehicle: Klucel (hydroxypropylcellulose) (HPC)) 121 % of control; under setting [1], 151 % of control and 164 % of control.

Regarding `Cc1nc2ccccc2nc1C1=C(O)c2ccccc2CC1=O`, the T/C is, setting by setting: under setting [2], 95 % of control; under setting [3], 90 % of control; under setting [4], 93 % of control.

Take `O=C1NC2CCC1CC2`: the T/C is 101 % of control (dose: 50.0 mg/kg/injection, schedule: Q01DX005 (ip), vehicle: suspension in saline); 97 % of control (dose: 100.0 mg/kg/injection, schedule: Q01DX005 (ip), vehicle: suspension in saline); 102 % of control (dose: 200.0 mg/kg/injection, schedule: Q01DX005 (ip), vehicle: suspension in saline).

On to `NC(=O)c1c(-c2ccccc2)nc2n1CCS2`, for which the T/C reads like this: (dose: 100.0 mg/kg/injection, schedule: Q01DX001 (ip), vehicle: Klucel (hydroxypropylcellulose) (HPC)) 106 % of control; (dose: 200.0 mg/kg/injection, schedule: Q01DX001 (ip), vehicle: Klucel (hydroxypropylcellulose) (HPC)) 109 % of control; (dose: 400.0 mg/kg/injection, schedule: Q01DX001 (ip), vehicle: Klucel (hydroxypropylcellulose) (HPC)) 107 % of control.

With `O=C(O)/C=C\c1c[nH]c2ccccc12`, the T/C reads like this: under setting [2], 94 % of control; under setting [3], 94 % of control; under setting [4], 88 % of control.

`CCCCCCC(=O)CCCCCCCCCCCCC(=O)OC`: the T/C is 100 % of control (dose: 12.5 mg/kg/injection, schedule: Q04DX003 (ip), vehicle: saline with Tween-80); 100 % of control (dose: 25.0 mg/kg/injection, schedule: Q04DX003 (ip), vehicle: saline with Tween-80); 100 % of control (dose: 50.0 mg/kg/injection, schedule: Q04DX003 (ip), vehicle: saline with Tween-80).

For `O=S1(=O)C=C(Br)CO1`, the T/C was 106 % of control under setting [5], 106 % of control under setting [6] and 97 % of control under setting [7].

`COc1ccc(C2c3cc4c(cc3OC(C)(O)C2C)OCO4)c(OC)c1` (configuration not stated): the T/C is 98 % of control under setting [8], 97 % of control under setting [9] and 100 % of control under setting [1].

Turning to `CC(=O)CSc1ncnc2nc[nH]c12`, the T/C under setting [5] was 100 % of control, the T/C under setting [6] was 113 % of control and the T/C under setting [7] was 109 % of control.

Regarding `CCCCCCCC/C=C/CCCCCCCCCCCCBr`, the T/C is 90 % of control under setting [10]; 95 % of control (dose: 100.0 mg/kg/injection, schedule: Q04DX003 (ip), vehicle: saline); 104 % of control under setting [11]; 95 % of control (dose: 200.0 mg/kg/injection, schedule: Q04DX003 (ip), vehicle: saline); 100 % of control (dose: 400.0 mg/kg/injection, schedule: Q01DX009 (ip), vehicle: saline); 100 % of control (dose: 400.0 mg/kg/injection, schedule: Q04DX003 (ip), vehicle: saline).

Take `CNC(C(=O)OC(C)(C)C)C(C)C` (configuration not stated): the T/C (dose: 25.0 mg/kg/injection, schedule: Q01DX005 (ip), vehicle: saline) was 98 % of control; the T/C under setting [12] is 99 % of control; the T/C under setting [13] is 99 % of control.

As for `NC(=S)n1nc(-c2ccccc2)c(N=Nc2cc(Cl)ccc2Cl)c1-c1ccccc1`, the T/C by setting is: (dose: 100.0 mg/kg/injection, schedule: Q04DX002 (ip), vehicle: saline with Tween-80) 89 % of control; (dose: 200.0 mg/kg/injection, schedule: Q04DX002 (ip), vehicle: saline with Tween-80) 90 % of control; (dose: 400.0 mg/kg/injection, schedule: Q04DX002 (ip), vehicle: saline with Tween-80) 110 % of control.

Consider `Cc1ccc(S(=O)(=O)OC2CCN(C(=O)OCc3ccccc3)CC2)cc1`, for which the T/C by setting is: (dose: 50.0 mg/kg/injection, schedule: Q01DX009 (ip), vehicle: saline with Tween-80) 95 % of control; (dose: 100.0 mg/kg/injection, schedule: Q01DX009 (ip), vehicle: saline with Tween-80) 98 % of control; (dose: 200.0 mg/kg/injection, schedule: Q01DX009 (ip), vehicle: saline with Tween-80) 98 % of control.

For `COc1ncnc(Sc2ncccn2)c1[N+](=O)[O-]`, the T/C is 103 % of control and 89 % of control (dose: 12.5 mg/kg/injection, schedule: Q01DX009 (ip), vehicle: saline); 103 % of control and 105 % of control (dose: 25.0 mg/kg/injection, schedule: Q01DX009 (ip), vehicle: saline); 102 % of control and 104 % of control and 90 % of control under setting [14]; 100 % of control and 123 % of control and 89 % of control under setting [10]; 109 % of control under setting [11].

`COC(=O)CCCCc1ccc(CCCCC(=O)OC)c2ccccc12`: the T/C runs as follows: (dose: 50.0 mg/kg/injection, schedule: Q01DX009 (ip), vehicle: other) 103 % of control; (dose: 100.0 mg/kg/injection, schedule: Q01DX009 (ip), vehicle: other) 100 % of control; (dose: 200.0 mg/kg/injection, schedule: Q01DX009 (ip), vehicle: other) 97 % of control.

For `CCN(CC)CCCC(=O)O`, the T/C is, setting by setting: under setting [12], 100 % of control; under setting [13], 100 % of control; (dose: 200.0 mg/kg/injection, schedule: Q01DX005 (ip), vehicle: saline) 100 % of control.

Regarding `BrC1=CC(Br)=C2N=C(N3CCCC3)N=C3N=C(N4CCCC4)N=C1N32`, the T/C is, setting by setting: (dose: 3.75 mg/kg/injection, schedule: Q01DX005 (ip), vehicle: Klucel + Tween-80) 97 % of control; (dose: 7.5 mg/kg/injection, schedule: Q01DX005 (ip), vehicle: Klucel + Tween-80) 97 % of control; (dose: 15.0 mg/kg/injection, schedule: Q01DX005 (ip), vehicle: Klucel + Tween-80) 89 % of control and 90 % of control; (dose: 60.0 mg/kg/injection, schedule: Q01DX005 (ip), vehicle: Klucel + Tween-80) 86 % of control.

For `CNC(=O)N(C)CP(=O)(O)OC`, the T/C under setting [14] was 100 % of control, the T/C under setting [10] was 98 % of control and the T/C under setting [11] is 91 % of control.

Take `CCSc1nc2ccc(NCn3nnc4ccccc43)cc2s1`: the T/C by setting is: under setting [8], 98 % of control; under setting [9], 89 % of control; under setting [1], 90 % of control.

Consider `CCCCCCCCCCCC[N+]1(CC)CCCCC1`, for which the T/C (dose: 0.39 mg/kg/injection, schedule: Q01DX009 (ip), vehicle: saline) is 108 % of control; the T/C (dose: 0.78 mg/kg/injection, schedule: Q01DX009 (ip), vehicle: saline) is 109 % of control; the T/C (dose: 1.56 mg/kg/injection, schedule: Q01DX009 (ip), vehicle: saline) was 118 % of control.

`CC1(C)CC(OP(=[Se])(c2ccccc2)c2ccccc2)CC(C)(C)N1O`: the T/C (dose: 12.5 mg/kg/injection, schedule: Q01DX001 (ip), vehicle: Klucel (hydroxypropylcellulose) (HPC)) was 96 % of control; the T/C (dose: 25.0 mg/kg/injection, schedule: Q01DX001 (ip), vehicle: Klucel (hydroxypropylcellulose) (HPC)) is 99 % of control; the T/C (dose: 50.0 mg/kg/injection, schedule: Q01DX001 (ip), vehicle: Klucel (hydroxypropylcellulose) (HPC)) is 104 % of control.

Take `COC(=O)CN1C(=O)c2cccc3cc(N)cc(c23)C1=O`: the T/C (dose: 100.0 mg/kg/injection, schedule: Q01DX005 (ip), vehicle: saline with Tween-80) was 87 % of control.

With `COc1cc(O)c2c(c1)C(=O)c1cc3c(c(O)c1C2=O)C(O)C(OC)C(C)(O)C3=O` (configuration not stated), the T/C was 95 % of control (dose: 6.25 mg/kg/injection, schedule: Q01DX009 (ip), vehicle: Klucel (hydroxypropylcellulose) (HPC)); 105 % of control (dose: 12.5 mg/kg/injection, schedule: Q01DX009 (ip), vehicle: Klucel (hydroxypropylcellulose) (HPC)); 98 % of control (dose: 25.0 mg/kg/injection, schedule: Q01DX009 (ip), vehicle: Klucel (hydroxypropylcellulose) (HPC)); 94 % of control (dose: 50.0 mg/kg/injection, schedule: Q01DX009 (ip), vehicle: Klucel (hydroxypropylcellulose) (HPC)); 95 % of control (dose: 100.0 mg/kg/injection, schedule: Q01DX009 (ip), vehicle: Klucel (hydroxypropylcellulose) (HPC)).

Turning to `Clc1nc2nc3n(c2nc1Cl)CCC3(Br)Br`, the T/C under setting [2] is 97 % of control, the T/C under setting [3] is 109 % of control and the T/C under setting [4] is 103 % of control.

For the origin of these results see PubChem BioAssay AID330 (DTP/NCI, 2004).
